According to patent US12414932B2, “Arsinothricin and methods of treating infections using arsinothricin” (priority 2018, dated 2025):

System: Gram-negative and Gram-positive bacteria
Assay: Bacterial resistance (growth inhibition) assay, environmental isolates
Assay type: cell-based
Details: M9 medium, 24 h; except B. gladioli GSRB05 and P. putida KT2440; PT as L-PT

CP(=O)(O)CCC(N)C(=O)O (racemic) [PT, phosphinothricin, reference compound]
concentration inhibiting each species to the same degree: 400 µM
